Measured values: US5559209A, “Regulator regions of G proteins” (The General Hospital Corporation, priority 1993, dated 1996)
Where no end group is shown, it is not given here.

Experiments:
Gi2 [1] = target: T1, Gi2 (Bos taurus, UniProt A7MBH9); assay: GTPγS binding, MIII-induced Gi2 activation; assay type: biochemical, bovine; conditions: 10 nM Gi2, 1 μM MIII, 5 min; read-out: IC50, attenuation of MIII-induced Gi2 activation
T1 construct: trimeric Gi2 (i.e., Gi2 αβγ) purified from bovine brain to near homogeneity; from tissue; host or cells: bovine brain
Description: (§1) Materials and Methods The in vitro assays described below utilize the couplone portion of each of a number of G-coupled receptors, instead of an intact receptor molecule, as a means for activating the corresponding anticouplone or intact G-protein. […]
(§2) GTPγS binding Assay--GTPγS binding to G proteins was assayed at 37° C. in 20 mM Hepes/NaOH buffer (pH 7.4) containing 130 μM MgCl2, 110 μM EDTA and 60 nM [^35 S]GTPγS, as described previously (Okamoto et al., 1990). […] The total amount of G protein was measured as maximal GTPγS binding at room temperature, as described (Okamoto et al., Cell 67:723-730, 1991a). […] Thus, the apparent first-order rate constant for GTPγS binding (kapp), which is equal to the slope of the tangent to the GTPγS binding curve at time 0 and represents the actual GTPγS binding rate, was calculated from this equation.
The MIII peptide is a Gi /Go -activator region in the third intracellular loop of the G-coupled receptor termed M4 AChR (Okamoto et al., J. Biol. Chem. 267:8342-8346, 1992). […] In the experiments illustrated in FIG. 1D, 10 nM Go (.quadrature.) or Gi2 (.diamond-solid.) was incubated with 1 μM MIII for 2 or 5 min, respectively, and GTPγS binding was measured in the same manner as in FIG. 1A. […]

Go = Go (Homo sapiens, UniProt P09471); assay: GTPγS binding, MIII-induced Go activation; assay type: biochemical; conditions: 10 nM Go, 1 μM MIII, 2 min
Description: (§3) GTPγS binding Assay--GTPγS binding to G proteins was assayed at 37° C. in 20 mM Hepes/NaOH buffer (pH 7.4) containing 130 μM MgCl2, 110 μM EDTA and 60 nM [^35 S]GTPγS, as described previously (Okamoto et al., 1990). GTPγS binding to polypeptides was negligible. The total amount of G protein was measured as maximal GTPγS binding at room temperature, as described (Okamoto et al., Cell 67:723-730, 1991a). [^35 S]GTPγS was purchased from DuPont-New England Nuclear. Binding of GTPγS to G proteins obeyed first-order kinetics according to the equation ln[(BT-B)/BT]=-kapp t, where B is the binding at time t and BT is the total binding observable at an infinite time. Thus, the apparent first-order rate constant for GTPγS binding (kapp), which is equal to the slope of the tangent to the GTPγS binding curve at time 0 and represents the actual GTPγS binding rate, was calculated from this equation.
The MIII peptide is a Gi /Go -activator region in the third intracellular loop of the G-coupled receptor termed M4 AChR (Okamoto et al., J. Biol. Chem. 267:8342-8346, 1992). This peptide has the sequence RNQVRKKRQMAARERKVTR (SEQ ID NO: 30). In the experiments illustrated in FIG. 1D, 10 nM Go (.quadrature.) or Gi2 (.diamond-solid.) was incubated with 1 μM MIII for 2 or 5 min, respectively, and GTPγS binding was measured in the same manner as in FIG. 1A. […]

Gi2 [2] = target: T1, Gi2; assay: GTPγS binding, TrM-peptide 14-induced Gi2 activation in phospholipid vesicles; assay type: biochemical, bovine; conditions: 0.3 nM Gi2 in phospholipid vesicles, 100 nM TrM-peptide 14; read-out: IC50, inhibition of TrM-peptide 14 stimulation of Gi2
Description: as §1, §2
Transmembrane domain-connected peptide 14 ["TrM-peptide 14"; […] […] In one of the experiments shown in FIG. 1B, 0.3 nM Gi2 reconstituted in phospholipid vesicles with 100 nM TrM-peptide 14 was exposed to various concentrations of ACGi2, and GTPγS binding was measured (.diamond-solid.). […]

Gi1 = Gi1 (Bos taurus, UniProt P63097); assay: GTPγS binding, peptide 14-induced Gi1 activation; assay type: biochemical; conditions: high concentrations (≥30 μM) of ACGi2; 10 nM Gi1, 30 μM peptide 14, 4 min
Description: as §3
(§4) Peptide 14 is capable of activating Gi1 and Gi3 as well as Gi2 (Okamoto et al., 1990). The effect of ACGi2 on peptide 14-induced activation of these Gi proteins was examined as follows: 10 nM Gi1 (.quadrature.) or Gi3 (.diamond-solid.) was incubated with 30 μM peptide 14 in the presence of various concentrations of ACGi2 for 4 min, and GTPβS binding was measured. The fractional GTPγS binding to Gi1 or Gi3 at 0% was (in 4 min^-1) 0.38 or 0.30, and that at 100% was 0.54 or 0.63, respectively.

Gs = target: T2, Gs (Bos taurus, UniProt P04896); assay: GTPγS binding, βIII-2-induced Gs activation; assay type: biochemical, bovine; conditions: 10 nM Gs, 1 μM βIII-2, 10 min
T2 construct: Trimeric Gs and Gβγ purified from bovine brain to near homogeneity; from tissue; host or cells: bovine brain
Description: as §1, §2
GTPβS binding was measured following incubation of solubilized Gs at 10 nM with 1 μM βIII-2 (RRSSKFCLKEHKALK; SEQ ID NO: 29) in the presence of ACGi2 for 10 min. […]

Gi3 = target: T3, Gi3 (Bos taurus, UniProt Q3ZCA7); assay: GTPγS binding, peptide 14-induced Gi3 activation; assay type: biochemical, bovine; conditions: 10 nM Gi3, 30 μM peptide 14, 4 min
T3 construct: was purified from bovine spleen and used in combination with 1.5-fold concentrated Gβγ; from tissue; host or cells: bovine spleen (Gi3 α); bovine brain (Gβγ)
Description: as §1, §2
as §4, with “The fractional GTPγS binding to Gi1 or Gi3 at 0% was (in 4 min^-1) 0.38 or 0.30, and that at 100% was 0.54 or 0.63, respectively.” left out

T1 sequence (A7MBH9 2-355 limits assumed): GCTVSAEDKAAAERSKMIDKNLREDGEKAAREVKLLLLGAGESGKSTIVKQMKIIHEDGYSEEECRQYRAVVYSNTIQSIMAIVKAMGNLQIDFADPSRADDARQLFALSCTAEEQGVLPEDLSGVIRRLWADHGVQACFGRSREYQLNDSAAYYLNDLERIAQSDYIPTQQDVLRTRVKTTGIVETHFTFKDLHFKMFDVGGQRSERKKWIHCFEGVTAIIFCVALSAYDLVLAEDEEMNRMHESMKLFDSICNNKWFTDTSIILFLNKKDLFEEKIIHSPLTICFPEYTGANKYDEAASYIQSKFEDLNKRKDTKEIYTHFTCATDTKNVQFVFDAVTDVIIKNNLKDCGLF
T1 sequence (P62871 2-340 partner limits assumed): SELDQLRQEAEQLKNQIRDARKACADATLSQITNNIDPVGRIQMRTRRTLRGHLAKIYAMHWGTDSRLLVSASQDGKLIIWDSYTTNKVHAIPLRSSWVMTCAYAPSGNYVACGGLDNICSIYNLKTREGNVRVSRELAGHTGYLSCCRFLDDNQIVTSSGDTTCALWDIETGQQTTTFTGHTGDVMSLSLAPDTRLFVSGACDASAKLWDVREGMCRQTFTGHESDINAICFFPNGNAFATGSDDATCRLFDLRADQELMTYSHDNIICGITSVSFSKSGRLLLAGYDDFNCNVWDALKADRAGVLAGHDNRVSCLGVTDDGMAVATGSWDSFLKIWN
T1 sequence (P63212 2-68 partner limits assumed): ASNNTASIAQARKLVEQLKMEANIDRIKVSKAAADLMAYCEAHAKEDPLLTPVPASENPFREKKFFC
Go, sequence (P09471 2-354 limits assumed): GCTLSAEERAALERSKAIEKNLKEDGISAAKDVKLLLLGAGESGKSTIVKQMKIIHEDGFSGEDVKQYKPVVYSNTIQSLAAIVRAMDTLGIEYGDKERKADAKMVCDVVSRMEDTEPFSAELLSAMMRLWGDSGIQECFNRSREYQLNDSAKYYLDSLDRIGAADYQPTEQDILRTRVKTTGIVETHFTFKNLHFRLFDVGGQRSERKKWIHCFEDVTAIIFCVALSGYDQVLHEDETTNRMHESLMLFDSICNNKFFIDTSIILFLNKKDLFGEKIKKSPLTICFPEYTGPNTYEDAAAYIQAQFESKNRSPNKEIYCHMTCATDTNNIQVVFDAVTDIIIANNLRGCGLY
Go, sequence (P62873 2-340 partner limits assumed): as the sequence (P62871 2-340 partner limits assumed) above
Go, sequence (P59768 2-68 partner limits assumed): as the sequence (P63212 2-68 partner limits assumed) above
T2 sequence (P04896 2-394 limits assumed): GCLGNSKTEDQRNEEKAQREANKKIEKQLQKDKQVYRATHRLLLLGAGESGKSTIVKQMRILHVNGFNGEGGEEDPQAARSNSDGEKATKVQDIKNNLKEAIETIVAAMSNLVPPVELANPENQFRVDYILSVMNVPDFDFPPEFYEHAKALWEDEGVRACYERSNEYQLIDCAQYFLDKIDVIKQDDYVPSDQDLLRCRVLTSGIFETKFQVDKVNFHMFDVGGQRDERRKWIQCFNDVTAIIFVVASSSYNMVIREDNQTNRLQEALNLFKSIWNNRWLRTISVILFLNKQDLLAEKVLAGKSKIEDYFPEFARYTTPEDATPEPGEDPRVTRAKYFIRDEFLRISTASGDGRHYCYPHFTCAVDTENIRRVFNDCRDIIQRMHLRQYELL
T2 sequence (P62871 2-340 partner limits assumed): as the sequence (P62871 2-340 partner limits assumed) above
T2 sequence (P63212 2-68 partner limits assumed): as the sequence (P63212 2-68 partner limits assumed) above
T3 sequence (Q3ZCA7 2-354 limits assumed): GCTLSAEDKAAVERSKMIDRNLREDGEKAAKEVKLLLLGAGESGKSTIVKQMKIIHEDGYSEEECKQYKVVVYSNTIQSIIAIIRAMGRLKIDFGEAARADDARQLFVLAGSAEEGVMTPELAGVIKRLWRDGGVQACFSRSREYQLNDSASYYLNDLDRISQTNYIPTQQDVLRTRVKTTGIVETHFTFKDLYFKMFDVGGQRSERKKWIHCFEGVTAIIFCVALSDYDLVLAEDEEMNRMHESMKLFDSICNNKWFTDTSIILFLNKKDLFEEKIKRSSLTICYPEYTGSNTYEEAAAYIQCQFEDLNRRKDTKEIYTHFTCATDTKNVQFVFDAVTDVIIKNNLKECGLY
T3 sequence (P62871 2-340 partner limits assumed): as the sequence (P62871 2-340 partner limits assumed) above
T3 sequence (P63212 2-68 partner limits assumed): as the sequence (P63212 2-68 partner limits assumed) above
Gi1, sequence (P63097 2-354 limits assumed): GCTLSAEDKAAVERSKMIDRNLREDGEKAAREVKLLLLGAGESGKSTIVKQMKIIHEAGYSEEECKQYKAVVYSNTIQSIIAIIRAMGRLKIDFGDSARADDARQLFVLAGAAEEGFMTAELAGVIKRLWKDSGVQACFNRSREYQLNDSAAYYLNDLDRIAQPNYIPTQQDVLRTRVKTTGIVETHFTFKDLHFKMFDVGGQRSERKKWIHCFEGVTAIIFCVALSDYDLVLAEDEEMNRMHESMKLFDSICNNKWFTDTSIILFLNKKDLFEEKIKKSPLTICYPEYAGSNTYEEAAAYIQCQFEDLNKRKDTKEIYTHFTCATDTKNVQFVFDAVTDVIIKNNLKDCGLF
Gi1, sequence (P62871 2-340 partner limits assumed): as the sequence (P62871 2-340 partner limits assumed) above
Gi1, sequence (P63212 2-68 partner limits assumed): as the sequence (P63212 2-68 partner limits assumed) above

DAVTDVIIKNNLKDC [ACGi2, DAVTDVIIKNNLKDC]
IC50 (Gi2 [1]): 10 µM | IC50 (Go): ~30 µM | IC50 (Gi2 [2]): 3 µM | maximal inhibition of peptide 14-induced Gi1 activation (Gi1): 30% | maximal inhibition of βIII-2-stimulated Gs (Gs): 40% | maximal inhibition of peptide 14-induced Gi3 activation (Gi3): ≈ 60%
